Reference: patent US9993494B2, “Compositions and methods for treating fibrotic disease” (eFFECTOR Therapeutics, Inc., priority 2014, dated 2018)

Columns and labels:
Assay type in all cases: cell-based
[1] = tested on: normal human lung fibroblasts; assay: Western blot of α-smooth muscle actin (α-SMA) in TGFβ-treated fibroblasts; conditions: fibroblasts treated with TGFβ, 24 hours, western blot
Protocol: (§1) Briefly, normal human lung fibroblasts (Lonza #CC-2512; cell passage numbers 2 through 5 were used for all experiments) were seeded (Day 0) and cultured in Dulbecco's modified Eagle medium (DMEM) supplemented with 10% fetal bovine serum (FBS), penicillin, streptomycin and glutamax (Invitrogen) at 37° C. in a humidified incubator with 5% CO2 overnight. On Day 1, cells were harvested, washed with phosphate buffered saline (PBS), and then incubated for 48 hours in fresh serum-free DMEM supplemented with penicillin, streptomycin, and glutamax.
(§2) After this 24 hour incubation, procollagen type 1 levels were measured by collecting culture media, centrifuging to pellet cellular debris, and stored at −80° C. Procollagen Type 1 C-Peptide (PIPC) was quantified using the (PIP) EIA kit (Clontech, Cat. No. MK101) according to manufacturer's instructions. The TGFβ-treated fibroblasts of this example were examined by ribosomal profiling (about 6×10^6 cells/10 cm plate) and western blot analysis (about 1×10^6 cells/well of a 6-well plate).
TGFβ-dependent activation of the PI3K/Akt/mTOR and ERK pathways were also examined by western blot analysis (about 1×10^6 cells/well from a 6-well plate). Briefly, cells were washed with PBS and lysed in 1× cell lysis buffer (Cell Signaling Technology, Inc., Danvers, Mass.) for 15 minutes at 4° C. Lysates were briefly sonicated, clarified by centrifugation for 15 minutes at 14,000 rpm, and then supernatants were collected. Protein concentration in the soluble fraction was determined by BCA protein assay (Thermo Scientific, Rockford, Ill.). Samples of protein (20 μg) were resolved on 4-20% Bis-Tris gradient gel (Invitrogen, Carlsbad, Calif.) and transferred to nitrocellulose membrane. The resulting blots were blocked for 1 hour at room temperature with Odyssey blocking solution (LI-COR) and then incubated with primary antibodies at 4° C. overnight. The following day, each blot was washed three times for 10 minutes in TBST, and then incubated with goat anti-rabbit fluorescent conjugated secondary antibody (IRDye 800 CW at 1:20,000; LI-COR) for 1 hour at room temperature. The blots were washed and scanned, and then specific proteins were detected by using the LI-COR Odyssey infrared imager. The following antibodies were used at 1:1000 dilution: anti-α-actin (Sigma #A2547), anti-phospho-4EBP(Ser65), anti-phospho-rpS6(Ser235/236)(#4858), anti-phospho-ERK1/2(Thr202/Tyr204)(#4370), anti-phospho-p70S6K(Thr421/Ser424)(#9204), anti-phospho-pAKT(Ser473), anti-phospho-MNK(Thr197/202), and anti-β-actin (#4970). Unless otherwise indicated, the antibodies were from Cell Signaling Technology, Inc. (Danvers, Mass.).
as §1, with “(Lonza;” for “(Lonza #CC-2512;”, “CO2 conditions” for “CO2”, “glutamax. On Day 3, cells were harvested, resuspended in fresh serum-free DMEM containing silvestrol (1, 5, 10, 75, 100, 500, or 1000 nM) and 10 ng/ml TGFβ, and cultured for 24 hours. Controls included untreated cells and cells treated with only TGFβ.” for “glutamax.”
as §2, with “kit (Clontech)” for “kit (Clontech, Cat. No. MK101)”, “example are” for “example were”

[2] = tested on: normal human lung fibroblasts; assay: Procollagen Type 1 C-Peptide (PIPC) EIA in culture media of TGFβ-treated fibroblasts; conditions: fibroblasts treated with TGFβ, 24 hours, procollagen ELISA
Protocol: as §1, §2
as §1, with “(Lonza;” for “(Lonza #CC-2512;”, “CO2 conditions” for “CO2”, “glutamax. On Day 3, cells were harvested, resuspended in fresh serum-free DMEM containing silvestrol (1, 5, 10, 75, 100, 500, or 1000 nM) and 10 ng/ml TGFβ, and cultured for 24 hours. Controls included untreated cells and cells treated with only TGFβ.” for “glutamax.”
as §2, with “kit (Clontech)” for “kit (Clontech, Cat. No. MK101)”, “example are” for “example were”
The levels of α-SMA and procollagen type 1, markers of fibroblast transdifferentiation into myofibroblasts and a surrogate for fibrotic disease progression, were measured after a 24 hour incubation of fibroblasts in the presence or absence of TGFβ sieIF4A1 or siCont. The knockdown efficiency was determined by quantitating the eIF4A mRNA level by qPCR (data not shown) and assessing the protein level by western analysis (see FIG. 11).

[3] = tested on: normal human lung fibroblasts; assay: Ribosomal profiling: translational efficiency in TGFβ-treated fibroblasts; conditions: vs untreated fibroblasts
Protocol: Ribosomal profiling allows for measurement of changes in transcription and translation on a genome-wide basis accompanying TGFβ-dependent transformation of fibroblasts to myofibroblasts. Ribosomal profiles of the TGFβ-treated fibroblasts from Example 1 (about 6×10^6 cells/10 cm plate) were prepared and analyzed for changes in translational efficiencies with respect to potential disease-associated cellular changes accompanying this TGFβ-induced transformation.
Briefly, cells were washed with cold PBS supplemented with cycloheximide and lysed with 1× mammalian cell lysis buffer for 10 minutes on ice. Lysates were clarified by centrifugation for 10 minutes at 14,000 rpm and supernatants were collected. Cell lysates were processed to generate ribosomal protected fragments and total mRNA according to the instructions included with the ARTseq Ribosome Profiling Kit (Illumina, San Diego, Calif.). Sequencing of total RNA (RNA) and of ribosome-protected fragments of RNA (RPF) was carried out using RNA-Seq methodology according to the manufacturer's instructions (Illumina). To analyze the ribosomal profiles, RNA-Seq reads were processed with tools from the FASTX-Toolkit (fastq_quality_trimmer, fastx_clipper and fastx_trimmer). Unprocessed and processed reads were evaluated for a variety of quality measures using FastQC, and processed reads were mapped to the human genome using TopHat (see, e.g., Trapnell et al., Bioinformatics 25:1105, 2009). Gene-by-gene assessment of the number of fragments strictly and uniquely mapping to the coding region of each gene was conducted using HTSeq-count, a component of the HTSeq package. […] Genes with low counts in either RPF or RNA were excluded from differential analyses. Pathway and network analyses of differential data were conducted using Ingenuity Pathway Analysis (IPA).

O=C(Nc1ccc(Cl)cc1)Nc1ccc2nonc2c1 [BOCPU, 1-(benzo[c][1,2,5]oxadiazol-5-yl)-3-(4-chlorophenyl)urea]
% Renormalization α-SMA [1]: +++ (+++ = >60%)

Nc1nccc2c1ncn2[C@@H]1O[C@H](CO)[C@@H](O)[C@H]1O [DZA, 3-deaza-adenosine]
% Renormalization α-SMA [1]: + (+ = 0-30%)
% Renormalization Collagen [2]: + (+ = 0-30%)

CC(C)CCN1c2nc(Nc3cc(F)c(O)c(F)c3)ncc2N(C)C(=O)C1C (centres unmarked) [BI-D1870, 2-[(3,5-Difluoro-4-hydroxyphenyl)amino]-7,8-dihydro-5,7-dimethyl-8-(3-methylbutyl)-6(5H)-pteridone]
% Renormalization α-SMA [1]: ++ (++ = 30-60%)
% Renormalization Collagen [2]: +++ (+++ = >60%)

TGF-β
Log2FC TE AKT1 [3]: −0.15
Log2FC TE AKT2 [3]: −0.16
Log2FC TE AKT3 [3]: 0.35
Log2FC TE ATM [3]: −0.16
Log2FC TE EIF1 [3]: 0.75
Log2FC TE EIF2A [3]: 0.74
Log2FC TE EIF2AK1 [3]: −0.25
Log2FC TE EIF2AK3 [3]: 0.67
Log2FC TE EIF2AK4 [3]: −0.28
Log2FC TE EIF2B1 [3]: 0.57
Log2FC TE EIF2B2 [3]: 0.16
Log2FC TE EIF2B3 [3]: 0.54
Log2FC TE EIF2B4 [3]: −0.35
Log2FC TE EIF2B5 [3]: 0.46
Log2FC TE EIF2C2 [3]: 0.12
Log2FC TE EIF2S1 [3]: −0.18
Log2FC TE EIF2S2 [3]: −0.43
Log2FC TE EIF2S3 [3]: 1.05
Log2FC TE EIF3A [3]: 0.04
Log2FC TE EIF3B [3]: 0.30
Log2FC TE EIF3D [3]: 0.71
Log2FC TE EIF3E [3]: 1.33
Log2FC TE EIF3F [3]: 0.92
Log2FC TE EIF3G [3]: 0.55
Log2FC TE EIF3H [3]: 1.34
Log2FC TE EIF3I [3]: 0.29
Log2FC TE EIF3K [3]: 0.73
Log2FC TE EIF3L [3]: 1.63
Log2FC TE EIF3M [3]: 0.90
Log2FC TE EIF4A1 [3]: 0.35
Log2FC TE EIF4A2 [3]: 0.41
Log2FC TE EIF4A3 [3]: 0.19
Log2FC TE EIF4E [3]: −0.51
Log2FC TE EIF4G1 [3]: 0.10
Log2FC TE EIF4G2 [3]: 0.87
Log2FC TE EIF4G3 [3]: −0.54
Log2FC TE EIF5 [3]: 0.56
Log2FC TE FAU [3]: 0.35
Log2FC TE GRB2 [3]: 0.05
Log2FC TE GSK3B [3]: −0.13
Log2FC TE HRAS [3]: 0.13
Log2FC TE MAP2K1 [3]: −0.18
Log2FC TE MAP2K2 [3]: 0.02
Log2FC TE MAPK1 [3]: 0.12
Log2FC TE MAPK3 [3]: 0.29
Log2FC TE MRAS [3]: −0.45
Log2FC TE NRAS [3]: 0.19
Log2FC TE PABPC1 [3]: 0.16
Log2FC TE PAIP1 [3]: −0.69
Log2FC TE PIK3C2A [3]: −0.64
Log2FC TE PIK3C3 [3]: −0.09
Log2FC TE PIK3CA [3]: −0.66
Log2FC TE PIK3R4 [3]: −0.69
Log2FC TE PPP1CA [3]: 0.04
Log2FC TE PPP1CB [3]: 0.13
Log2FC TE PPP1CC [3]: 0.27
Log2FC TE PPP1R15A [3]: −0.09
Log2FC TE RAF1 [3]: 0.16
Log2FC TE RPL3 [3]: 1.68
Log2FC TE RPL4 [3]: 1.23
Log2FC TE RPL5 [3]: 1.49
Log2FC TE RPL6 [3]: 1.13
Log2FC TE RPL7 [3]: 0.59
Log2FC TE RPL7A [3]: 1.37
Log2FC TE RPL8 [3]: 0.69
Log2FC TE RPL9 [3]: 1.41
Log2FC TE RPL10 [3]: 0.74
Log2FC TE RPL10A [3]: 0.92
Log2FC TE RPL11 [3]: 0.78
Log2FC TE RPL12 [3]: 1.28
Log2FC TE RPL13 [3]: 0.83
Log2FC TE RPL13A [3]: 1.26
Log2FC TE RPL14 [3]: 1.08
Log2FC TE RPL15 [3]: 0.95
Log2FC TE RPL17 [3]: 0.97
Log2FC TE RPL18 [3]: 0.81
Log2FC TE RPL18A [3]: 1.06
Log2FC TE RPL19 [3]: 0.71
Log2FC TE RPL21 [3]: 0.83
Log2FC TE RPL22 [3]: 0.22
Log2FC TE RPL22L1 [3]: 0.84
Log2FC TE RPL23 [3]: 0.79
Log2FC TE RPL23A [3]: 1.03
Log2FC TE RPL24 [3]: 1.09
Log2FC TE RPL26 [3]: 1.42
Log2FC TE RPL27 [3]: 1.17
Log2FC TE RPL27A [3]: 1.17
Log2FC TE RPL28 [3]: 1.24
Log2FC TE RPL29 [3]: 1.16
Log2FC TE RPL30 [3]: 1.20
Log2FC TE RPL31 [3]: 0.80
Log2FC TE RPL32 [3]: 1.55
Log2FC TE RPL34 [3]: 1.21
Log2FC TE RPL35 [3]: 0.59
Log2FC TE RPL35A [3]: 1.22
Log2FC TE RPL36 [3]: 0.76
Log2FC TE RPL36AL [3]: −0.08
Log2FC TE RPL37 [3]: 1.31
Log2FC TE RPL37A [3]: 1.33
Log2FC TE RPL38 [3]: 1.00
Log2FC TE RPL41 [3]: 0.85
Log2FC TE RPLP0 [3]: 0.73
Log2FC TE RPLP1 [3]: 0.50
Log2FC TE RPLP2 [3]: 0.93
Log2FC TE RPS2 [3]: 0.88
Log2FC TE RPS3 [3]: 1.22
Log2FC TE RPS3A [3]: 1.48
Log2FC TE RPS4X [3]: 1.14
Log2FC TE RPS4Y1 [3]: 0.78
Log2FC TE RPS5 [3]: 0.75
Log2FC TE RPS6 [3]: 1.59
Log2FC TE RPS7 [3]: 1.13
Log2FC TE RPS8 [3]: 1.20
Log2FC TE RPS9 [3]: 0.97
Log2FC TE RPS10 [3]: 0.74
Log2FC TE RPS11 [3]: 0.97
Log2FC TE RPS12 [3]: 0.94
Log2FC TE RPS13 [3]: 1.15
Log2FC TE RPS14 [3]: 1.01
Log2FC TE RPS15 [3]: 0.74
Log2FC TE RPS15A [3]: 1.53
Log2FC TE RPS16 [3]: 1.10
Log2FC TE RPS18 [3]: 1.18
Log2FC TE RPS19 [3]: 0.99
Log2FC TE RPS20 [3]: 1.39
Log2FC TE RPS21 [3]: 1.36
Log2FC TE RPS23 [3]: 0.74
Log2FC TE RPS24 [3]: 0.66
Log2FC TE RPS25 [3]: 1.58
Log2FC TE RPS26 [3]: 0.71
Log2FC TE RPS27 [3]: 1.08
Log2FC TE RPS27A [3]: 0.71
Log2FC TE RPS27L [3]: −0.15
Log2FC TE RPS28 [3]: 0.74
Log2FC TE RPS29 [3]: 0.89
Log2FC TE RPSA [3]: 0.99
Log2FC TE RRAS [3]: 0.00
Log2FC TE RRAS2 [3]: 0.02
Log2FC TE SHC1 [3]: −0.04
Log2FC TE SOS2 [3]: 0.49
Log2FC TE UBA52 [3]: 0.87
